Laboratory results: article PMC12266748, “A Xanthine Derivative With Novel Heat Shock Protein 90‐Alpha Inhibitory and Senolytic Properties” (Aging Cell, 2025)
Like-named read-outs stand apart in the source and are kept apart here.

Columns and labels:
IMR90 cells = experiment: Dose-response curves on proliferating and replicative senescent IMR90 (Trypan blue cell count); type: cell-based; conditions: for EC50: Homo sapiens, IMR-90
Text: IMR90 and WI38 lung fibroblasts were purchased from ECACC‐Merck. Human bone marrow (BM)‐derived mesenchymal stromal cells (MSCs) were purchased from Lonza. Human umbilical vein endothelial cells (HUVECs) are primary cells obtained from a pool of donors purchased from Clonetics (Lonza). Murine ear fibroblasts (MearFs) were obtained from C57BL/6J mice maintained in the INRCA “Specific Pathogen Free” (SPF) animal facility. MCF7 breast cancer cells were purchased from ATCC. For dose–response curves, IMR90 and WI38 were induced to senescence through replicative passages; MSCs, HUVECs, and MearFs senescence was induced with Doxorubicin; MCF7 senescence was induced with 4‐Hydroxytamoxifen (Lee et al. [2014]). The EC50 was calculated using GraphPad Prism 10 software. All treatment specifications are reported in the extended section.
Cell culture and treatment. IMR90 cells (Homo sapiens, fetal lung, fibroblast) and WI38 cells (Homo sapiens, fetal lung, fibroblast) were purchased from ECACC-Merck (Merck, Darmstadt, Germany) and cultured in MEM medium (Euroclone, Milano, Italy) supplemented with 1% L-Glutamine (Euroclone, Milano, Italy), 1% Penicillin-Streptomycin (Euroclone, Milano, Italy), and 10% Fetal Bovine Serum (FBS, Euroclone, Milano, Italy), at 37°C, 5% CO2. IMR90 cells with a population doubling (PD) from PD15 to PD23 were used; cells were considered incrementally senescent from passage PD19 to passage PD23. WI38 cells were used from PD26 to PD53. Cells were considered incrementally senescent from passage PD49 to passage PD53. For the compounds in vitro screening, IMR90 cells with passages from PD15 to PD23 were tested at increasing concentrations of 0.5 μM, 1 μM, 10 μM, and 25 μM over 24 and 48 h to evaluate the compounds' efficacy and cytotoxicity compared to the Vehicle (DMSO ≤ 0.1%). Cells were counted manually, in triplicate, using Trypan blue reagent (Euroclone) and disposable Bürker chambers. […] K5 dose-response proliferation curves were performed with compound K5 (Molport, SIA, Riga, Latvia) in concentrations 0.1, 0.5, 1, 5, 10, 50, 100, and 200 μM for 48 h. Cells were counted using a Trypan blue reagent and EVAplus cell counter. The EC50s were calculated by analyzing the data using GraphPad Prism 10 software.
MCF7 cell line (ATCC; HTB-22, Homo sapiens, breast cancer) was purchased from ATCC; cells were grown in MEM medium (Corning, New York, USA, #15-010-CVR) supplemented with 10% FBS (Gibco, Invitrogen, Carlsbad, CA, USA, #10270106), 1% glutamine (Corning #25005-CI), 1% penicillin and streptomycin (Corning #30002-CI). Cells were incubated at 37 °C with 5% CO2. Senescent status induction: MCF7 were plated 24 h before the treatment with 4-Hydroxytamoxifen (TAM) 10 μM to induce the senescence described by (Lee et al. 2014). Control cultures were treated with equal volumes of 75% ethanol as the vehicle. The treatment with TAM lasts 96 h, after which the cells have been washed and treated with the senolytic drugs K5 10 µM for another 96 h. The treatment with the senolytic compounds has been renewed at 48 h. Cell mortality and vitality curves after treatment with K5 (10 μM, orange) or Vehicle (DMSO, grey) were monitored using the Incucyte live-cell Analysis system (Sartorius, Goettingen, Germany). The estimated Senolytic index (SI) was calculated as the ratio between the EC50 in proliferating cells and the EC50 in senescent cells, extrapolated using GraphPad Prism 10 software.

MCF7 cells = experiment: SA-β-galactosidase colorimetric assay on Tamoxifen-treated MCF7; type: cell-based, Homo sapiens
Protocol: Previously treated cells were fixed according to the protocols established by the supplier (Cell Signaling). The images were acquired using an optical microscope (Leica) with 5× and 10× magnification (MAG) or the phase microscopy EVOS XL Core at 10× MAG and analyzed using the ImageJ software. The mean signal intensity was then normalized for the total number of cells.
MCF7 cell line (ATCC; HTB-22, Homo sapiens, breast cancer) was purchased from ATCC; cells were grown in MEM medium (Corning, New York, USA, #15-010-CVR) supplemented with 10% FBS (Gibco, Invitrogen, Carlsbad, CA, USA, #10270106), 1% glutamine (Corning #25005-CI), 1% penicillin and streptomycin (Corning #30002-CI). Cells were incubated at 37 °C with 5% CO2. […] Cell mortality and vitality curves after treatment with K5 (10 μM, orange) or Vehicle (DMSO, grey) were monitored using the Incucyte live-cell Analysis system (Sartorius, Goettingen, Germany). The estimated Senolytic index (SI) was calculated as the ratio between the EC50 in proliferating cells and the EC50 in senescent cells, extrapolated using GraphPad Prism 10 software.
β-galactosidase colorimetric assay. […] The images were analyzed using the ImageJ software, quantifying the colorimetric signal emitted by each cell. […]

Cc1ccccc1-n1c(=O)n(Cc2ccccc2)c(=O)c2[nH]cnc21 [Compound K5, 1-benzyl-3-(2-methylphenyl)-7H-purine-2,6-dione]
EC50 (IMR90 cells; IMR90, Replicative/passages, read-out: EC50 senescent cells): 0.38 µM | EC50 (IMR90 cells; IMR90, read-out: EC50 proliferating cells): > 500 µM | Senolytic evidence (no, partly/yes) (IMR90 cells; IMR90, Replicative/passages): Yes | Senolytic index (estimated) (IMR90 cells; IMR90, SI = EC50 in proliferating cells/EC50 senescent cells): > 1320 | toxicity in proliferating cells (IMR90 cells; proliferating IMR90 (PD15), 100 nM to 200 μM, 48 h): no evident toxicity | SA-β-gal positive senescent cells (MCF7 cells; MCF7, TAM 10 μM 96 h then K5 10 μM 24 to 96 h, Vehicle 40%): 10% | reduced SA-β-gal (MCF7 cells; Tamoxifen-induced senescent MCF7): 30%
